These results are taken from US5708063A, “Photochromic compound” (Tokuyama Corporation, priority 1993, dated 1998).

What all share (format): physicochemical
The nature of series [1]: Photochromic PMMA cast film: initial coloration density, maximum absorption wavelength and fatigue life in xenon fadeometer (Example 9).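 On Initial color density: initial color density is an absorbance value so the % unit is wrong.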 To be noted: PMMA cast film 0.1 mm; for λmax / Initial color density: xenon light; for Initial color density / T1/2: no stabilizer; for T1/2: time for color density to fall to half of initial value, xenon fadeometer. The source says: The thickness of the cast film was adjusted to 0.1 mm.
(§1) T1/2 is defined as the time required for the color density to decrease to half of its initial value when the film is exposed to the fadeometer.

Series [2] can be described thus: Durability of poly(allyl diglycol carbonate) lens impregnated with the compound in silicone oil, as in Example 9 (Example 10). To be noted: silicone oil impregnation; for Initial color density: 1.0×10^-4 mole/g; for T1/2: xenon fadeometer. The arrangement: Initial color density: unit not given here. As to the method: as §1
The solution was impregnated in the surface of a lens composed of poly(allyl diglycol carbonate) at 200° C. for 1 hour. The concentration of the solution was adjusted to 1.0×10^-4 mole/g.

A short description of series [3]: Fatigue life of photochromic PMMA cast film with ultraviolet stabilizer, xenon fadeometer (Examples 11-14). As to the method: One hundred parts by weight of benzene, 10 parts by weight of poly(methyl methacrylate), 0.2 part […] The solution was cast on a slide glass (11.2×3.7 cm) to form a cast film having a thickness of 0.1 mm.
The fatigue life of photochromic film was measured as in Example 9 by a xenon long-life fadeometer (FAL-25AX-HC made by Suga Testing Instrument Co., Ltd.).
Example 11 was repeated except that the fulgimide compound obtained in Example 2 was used instead of fulgimide compound used in Example 11.
Example 11 was repeated except that the fulgimide or fulgide compounds shown in Table 28 were used instead of the fulgimide compounds in Example 11, and Cyasorb UV1084 was used as the ultraviolet stabilizer.

Series [4] in a line: Fatigue life of fulgide/fulgimide and chromene compound in polymerized methacrylate plate (Example 15). To be noted: 0.05 part, with chromene 5 (0.04 part). As to the method: (§2) […] The mixed solution was injected into a mold which was made of a glass plate and a gasket formed of an ethylene-vinyl acetate copolymer, and was heated to a temperature of 35° to 90° C. in an air oven over a period of 20 hours for polymerization. After the polymerization was over, the polymer was withdrawn from the glass plate of the mold.
(§3) The resulting polymerized plate was irradiated with sunlight for 10 minutes. On this occasion, a color tone of said plate was visually observed. In this polymerized plate, the fulgide or fulgimide compound and the chromene compound were measured for fatigue life in the same manner as in Example 9. Further, a color tone of the polymerized plate was visually observed in T1/2 (hrs.) of the fulgide or fulgimide compound.

Series [5] is described as follows: Visual color tone of polymerized plate under sunlight (Example 15). The settings on record: 0.05 part, with chromene 5 (0.04 part). As to the method:
as §2, §3

The mark [6] stands for this setting: PMMA film, UV stabilizer Chimassorb 944, 0.2 part.
Setting [7] is: PMMA film, UV stabilizer Cyasorb 3346, 0.2 part.
Where [8] appears, read: PMMA film, UV stabilizer Cyasorb UV1084, 0.2 part.
The mark [9] stands for this setting: PMMA film, UV stabilizer Irgastab 2002, 0.2 part.
[10] abbreviates: PMMA film, UV stabilizer Rylex NBC, 0.2 part.
Setting [11] is: PMMA film, UV stabilizer Spinuvex A-36, 0.2 part.
Where [12] appears, read: PMMA film, UV stabilizer Tinuvin 144, 0.2 part.
The mark [13] stands for this setting: PMMA film, UV stabilizer Tinuvin 622, 0.2 part.
The mark [14] stands for this setting: PMMA film, UV stabilizer Tinuvin 765, 0.2 part.
[15] abbreviates: PMMA film, UV stabilizer UV Chek AM101, 0.2 part.
Setting [16] is: PMMA film, UV stabilizer UV Chek AM105, 0.2 part.

Regarding `COC(=O)CN1C(=O)C2=C(C3CC3)c3ccsc3C3(C4CCC3CC4)C2C1=O` (stereo not shown) [(1), 4-cyclopropyl-6,7-dihydrdo-N-methoxycarbonylmethylspirobenzo[5,6-b]thiophenedicarboxyimido-7,7'-bicyclo[2.2.1]heptane], the λmax in series [1] is 549 nm; in series [2] it was 554 nm. Besides, the figures for the Initial color density in series [1] and in series [2] were 0.85% and 0.78, respectively. The T1/2 in series [1] is 77 h; in series [2] it was 82 h; in series [3] (Cyasorb UV1084, amount added 0.002, 1 part per 100 parts fulgimide), 220 h; in series [3] (Cyasorb UV1084, amount added 0.1, 50 parts per 100 parts fulgimide), 293 h; in series [3] (Cyasorb UV1084, amount added 0.8, 400 parts per 100 parts fulgimide) it was 330 h; in series [3] (Cyasorb UV1084, amount added 20, 10000 parts per 100 parts fulgimide) it was 367 h. Also, the T1/2 in series [3] (setting [6]) worked out at 283 h; in series [3] (setting [7]), 336 h; in series [3] (setting [8]), 310 h; in series [3] (setting [9]) it was 299 h; in series [3] (setting [10]) it was 323 h; in series [3] (setting [11]), 302 h. For the same molecule, the T1/2 in series [3] (setting [12]) came to 310 h; in series [3] (setting [13]), 327 h; in series [3] (setting [14]), 325 h; in series [3] (setting [15]) it was 295 h; in series [3] (setting [16]), 272 h; in series [3] (Tinuvin 765, amount added 0.002, 1 part per 100 parts fulgimide) it was 213 h. The T1/2 came to 307 h in series [3] (Tinuvin 765, amount added 0.1, 50 parts per 100 parts fulgimide); 340 h in series [3] (Tinuvin 765, amount added 0.8, 400 parts per 100 parts fulgimide); 375 h in series [3] (Tinuvin 765, amount added 20, 10000 parts per 100 parts fulgimide).

With `N#CCN1C(=O)C2=C(C3CC3)c3ccsc3C3(C4CCC3CC4)C2C1=O` (stereo not shown) [(2), N-cyanomethyl-4-cyclopropyl-6,7-dihydridospirobenzo[5,6-b]thiophenedicarboxyimido-7,7'-bicyclo[2.2.1]heptane], the λmax in series [1] is given as 563 nm; in series [2], 568 nm. Also, the Initial color density in series [1] is reported as 0.78%; in series [2], 0.71. Further, the T1/2 in series [1] was 89 h; in series [2], 91 h; in series [3] (setting [6]) it was 325 h; in series [3] (setting [7]) it was 385 h; in series [3] (setting [8]), 350 h; in series [3] (PMMA film, UV stabilizer Cyasorb UV1084, 0.2 part, listed as Example 2) it was 355 h. Besides, the T1/2 came to 340 h in series [3] (setting [9]); 369 h in series [3] (setting [10]); 346 h in series [3] (setting [11]); 355 h in series [3] (setting [12]); 375 h in series [3] (setting [13]); 373 h in series [3] (setting [14]). Also, the T1/2 in series [3] (setting [15]) was found to be 336 h; in series [3] (setting [16]), 308 h.

`CCC(C(=O)OCCc1ccc2ccccc2c1)N1C(=O)C2=C(C3CC3)c3ccsc3C3(C4CC5CC(C4)CC3C5)C2C1=O` (stereo not shown) [(5)]: in series [1], the λmax is 532 nm, the Initial color density stood at 0.69% and the T1/2 was 61 h. Further, the T1/2 in series [3] (setting [8]) is 244 h.

In the case of `O=C(CCCCN1C(=O)C2=C(C3CC3)c3ccsc3C3(C4CC5CC(C4)CC3C5)C2C1=O)OCCc1ccc2ccccc2c1` (stereo not shown) [(6)], in series [1], the λmax is given as 549 nm, the Initial color density is on record as 0.72% and the T1/2 came to 57 h. For the same molecule, the T1/2 in series [3] (setting [8]) was 210 h.

In series [1], `O=C1OC(=O)C2C1=C(C1CC1)c1cc(Br)sc1C21C2CC3CC(C2)CC1C3` (stereo not shown) [(7), 2-bromo-4-cyclopropyl-6,7-dihydridospirobenzo[5,6-b]thiophenedicarboxyanhydride-7,2'-tricyclo[3.1.1^3.7]decane] had a λmax of 529 nm, an Initial color density of 1.21% and a T1/2 of 54 h. The T1/2 in series [3] (setting [8]) is 220 h.

In series [1], `CNC(=O)CCC(=O)CCN1C(=O)C2=C(C3CC3SC)c3ccn(C)c3C3(C4CCC3(C)CC4)C2C1=O` (stereo not shown) [(15)] displayed a λmax of 613 nm, an Initial color density of 0.69% and a T1/2 of 65 h. Moreover, the “T1/2 of fulgide or fulgimide compound” value in series [4] stood at 160 h. For the same molecule, in series [5], the “Color tone in T0” value is “green” and the “Color tone in T1/2” value is on record as “light gray”.

Consider `COC(=O)C(C)N1C(=O)C2=C(C3CC3)c3cc(-c4cccc(OC)c4)sc3C3(C4CC5CC(Cl)(C4)CC3(Cl)C5)C2C1=O` (stereo not shown) [(35)], for which, in series [1], the λmax came to 574 nm, the Initial color density is reported as 0.73% and the T1/2 was 85 h. Also, in series [2], the λmax is on record as 580 nm, the Initial color density was 0.67 and the T1/2 was 90 h.

With `Cc1cc2c(n1C)C1(C3CC4CC(F)(C3)CC1(F)C4)C1C(=O)N(C3CCC([N+](=O)[O-])CC3)C(=O)C1=C2C1CC1` (stereo not shown) [(40)], the values for the λmax in series [1] and in series [2] were 532 nm and 535 nm, respectively. Moreover, the values for the Initial color density in series [1] and in series [2] were 0.77% and 0.70, respectively. For the same molecule, the T1/2 was 71 h in series [1], 74 h in series [2] and 280 h in series [3] (setting [8]).

In series [1], `CCOC(=O)OCN1C(=O)C2=C(C3CC3c3ccccc3)c3cc(OCC)sc3C3(C4CC5CC(C)(C4)CC3(C)C5)C2C1=O` (stereo not shown) [(41)] registered a λmax of 557 nm, an Initial color density of 0.82% and a T1/2 of 65 h. This molecule also displayed a T1/2 in series [3] (setting [8]) of 263 h.

For `CC(=O)OCN1C(=O)C2=C(C3CC3)c3sc(Br)cc3C3(C4CC5CC(C4)CC3C5)C2C1=O` (stereo not shown) [(42)], in series [1], the λmax is on record as 548 nm, the Initial color density was found to be 0.57% and the T1/2 is 68 h. In series [2], this molecule yielded a λmax of 553 nm, an Initial color density of 0.51 and a T1/2 of 71 h.

In series [1], `O=C1OC(=O)C2C1=C(C1CC1)c1c(sc3ccccc13)C21C2CCC1CC2` (stereo not shown) [(49)] yielded a λmax of 564 nm, an Initial color density of 1.15% and a T1/2 of 58 h. This molecule had a T1/2 in series [3] (setting [8]) of 235 h.

As to `O=C1OC(=O)C2C1=C(C1CC1C(F)(F)F)c1sc(Br)cc1C21C2CCC1CC2` (stereo not shown) [(50)], in series [1], the λmax came out at 518 nm, the Initial color density was 0.90% and the T1/2 stood at 48 h. The same molecule registered a T1/2 in series [3] (setting [8]) of 200 h.

Consider `COc1cc2c(c(OC)c1OC)C1(C3CCC1CC3)C1C(=O)OC(=O)C1=C2C1CC1` (stereo not shown) [(51)], for which, in series [1], the λmax amounted to 561 nm, the Initial color density was 0.92% and the T1/2 turned out to be 52 h. In series [2], the λmax is listed as 562 nm, the Initial color density is on record as 0.82 and the T1/2 was 55 h.

Consider `Cc1cc2c(n1C)C1(C3CCCC1CCC3)C1C(=O)OC(=O)C1=C2C1CC1` (stereo not shown) [(53)], for which, in series [1], the λmax was 525 nm, the Initial color density is listed as 1.18% and the T1/2 amounted to 56 h. In series [2], this molecule had a λmax of 530 nm, an Initial color density of 1.08 and a T1/2 of 60 h.

In series [1], `CCOc1cc2c(s1)C1(C3CCCC1CCC3)C1C(=O)OC(=O)C1=C2C1CC1` (stereo not shown) [(55)] showed a λmax of 545 nm, an Initial color density of 1.25% and a T1/2 of 58 h. Also, in series [2], the λmax is 550 nm, the Initial color density is 1.13 and the T1/2 was 61 h.

As for `CCn1c2c(c3ccccc31)C(C1CC1)=C1C(=O)OC(=O)C1C21C2CC3CC1CC(C)(C3)C2` (stereo not shown) [(57)], in series [1], the λmax was 559 nm, the Initial color density worked out at 1.21% and the T1/2 was found to be 55 h. In series [3] (setting [8]), this molecule yielded a T1/2 of 220 h.

As to `O=C1OC(=O)C2C1=C(C1CC1)c1cc([N+](=O)[O-])sc1C21C2CC3CC(C2)CC1C3` (stereo not shown) [(59)], in series [1], the λmax was 524 nm, the Initial color density is 1.21% and the T1/2 stood at 57 h. The molecule also returned a T1/2 in series [3] (setting [8]) of 228 h.
